Reference: patent US20120172384A1, “HETEROCYCLYLAMINOPYRIMIDINES AS KINASE INHIBITORS” (priority 2009, published 2012)

Each molecule was assayed against T1, ZAP-70 (Homo sapiens, UniProt P43403) (assay: ZAP-70 kinobeads assay). Conditions: cell lysate, dot blot with ZAP-70 antibody.
T1 construct: endogenous in cells
T1 sequence (P43403 1-619): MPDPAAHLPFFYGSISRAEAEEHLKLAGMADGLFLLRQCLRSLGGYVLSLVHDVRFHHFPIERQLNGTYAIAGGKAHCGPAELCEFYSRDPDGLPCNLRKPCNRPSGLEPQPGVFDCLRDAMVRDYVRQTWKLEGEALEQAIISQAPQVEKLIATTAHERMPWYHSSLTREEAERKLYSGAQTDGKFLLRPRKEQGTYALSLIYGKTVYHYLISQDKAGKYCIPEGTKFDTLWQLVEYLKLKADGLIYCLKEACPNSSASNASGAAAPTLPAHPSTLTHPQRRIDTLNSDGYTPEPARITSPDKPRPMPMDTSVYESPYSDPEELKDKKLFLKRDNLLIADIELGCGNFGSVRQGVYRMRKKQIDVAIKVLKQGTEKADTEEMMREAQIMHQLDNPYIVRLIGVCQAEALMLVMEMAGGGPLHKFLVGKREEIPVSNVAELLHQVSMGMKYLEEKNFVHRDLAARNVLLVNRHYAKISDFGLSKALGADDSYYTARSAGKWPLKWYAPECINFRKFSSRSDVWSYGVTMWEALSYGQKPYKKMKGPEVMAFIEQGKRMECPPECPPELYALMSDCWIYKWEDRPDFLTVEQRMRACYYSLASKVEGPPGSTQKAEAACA
Assay type: binding
Protocol: (§1) The compounds of the present invention as described in the previous examples were tested in the ZAP-70 kinobeads assay as described (EP-A 1862802 and WO-A 2007/137867). Briefly, test compounds (at various concentrations) and the affinity matrix with the immobilized aminopyrido-pyrimidine ligand 24 are added to cell lysate aliquots and allowed to bind to the proteins in the lysate sample. After the incubation time the beads with captured proteins are separated from the lysate. Bound proteins are then eluted and the presence ZAP-70 is detected and quantified using a specific antibody in a dot blot procedure and the Odyssey infrared detection system.
Work on `COc1ccc(Nc2nc(Nc3cc(C)nn3C(C)C3CC3)ncc2Cl)c(NS(C)(=O)=O)c1` (stereo not drawn) [Example 88, N-(2-((5-chloro-2-((1-(1-cyclopropylethyl)-3-methyl-1H-pyrazol-5-yl)amino)pyrimidin-4-yl)amino)-5-methoxyphenyl)methanesulfonamide] yielded an IC50 of 1 to 10 µM. `COc1ccc(Nc2nc(Nc3cc(C)nn3C(C)C)ncc2Cl)c(NS(C)(=O)=O)c1` [Example 71, N-(2-((5-chloro-2-((1-isopropyl-3-methyl-1H-pyrazol-5-yl)amino)pyrimidin-4-yl)amino)-5-methoxyphenyl)methanesulfonamide] gave an IC50 of 0.1 to 1 µM. Molecule `COc1ccc(Nc2nc(Nc3cc(C)nn3CC(C)C)ncc2Cl)c(NS(C)(=O)=O)c1` [Example 95, N-(2-((5-chloro-2-((1-isobutyl-3-methyl-1H-pyrazol-5-yl)amino)pyrimidin-4-yl)amino)-5-methoxyphenyl)methanesulfonamide] has an IC50 of 0.1 to 1 µM. `CCCn1nccc1Nc1ncc(Cl)c(Nc2ccc(OC)cc2NS(C)(=O)=O)n1` [Example 76, N-(2-((5-chloro-2-((1-propyl-1H-pyrazol-5-yl)amino)pyrimidin-4-yl)amino)-5-methoxyphenyl)methanesulfonamide] showed an IC50 of 0.1 to 1 µM. `CCCCn1nccc1Nc1ncc(Cl)c(Nc2ccc(OC)cc2NS(C)(=O)=O)n1` [Example 87, N-(2-((2-((1-butyl-1H-pyrazol-5-yl)amino)-5-chloropyrimidin-4-yl)amino)-5-methoxyphenyl)methanesulfonamide] showed an IC50 of 0.1 to 1 µM. `CCC(C)n1nc(C)cc1Nc1ncc(Cl)c(Nc2ccc(OC)cc2NS(C)(=O)=O)n1` (stereo not drawn) [Example 27, N-(2-(2-(1-sec-butyl-3-methyl-1H-pyrazol-5-ylamino)-5-chloropyrimidin-4-ylamino)-5-methoxyphenyl)methanesulfonamide] was tested, and the IC50 was 0.1 to 1 µM. `COc1ccc(Nc2nc(Nc3c(C)cnn3C)ncc2Cl)c(NS(C)(=O)=O)c1` [Example 14, N-(2-(5-chloro-2-(1,4-dimethyl-1H-pyrazol-5-ylamino)pyrimidin-4-ylamino)-5-methoxyphenyl)methanesulfonamide] gave an IC50 of 1 to 10 µM. `COc1ccc(Nc2nc(Nc3ccnn3C(C)C)ncc2Cl)c(NS(C)(=O)=O)c1` [Example 68, N-(2-((5-chloro-2-((1-isopropyl-1H-pyrazol-5-yl)amino)pyrimidin-4-yl)amino)-5-methoxyphenyl)methanesulfonamide] gave an IC50 of 0.1 to 1 µM. `CCn1ncc(C)c1Nc1ncc(Cl)c(Nc2ccc(OC)cc2NS(C)(=O)=O)n1` [Example 26, N-(2-(5-chloro-2-(1-ethyl-4-methyl-1H-pyrazol-5-ylamino)pyrimidin-4-ylamino)-5-methoxyphenyl)methanesulfonamide] showed an IC50 of 1 to 10 µM. Molecule `COc1ccc(Nc2nc(Nc3ccnn3CC(C)C)ncc2Cl)c(NS(C)(=O)=O)c1` [Example 98, N-(2-((5-chloro-2-((1-isobutyl-1H-pyrazol-5-yl)amino)pyrimidin-4-yl)amino)-5-methoxyphenyl)methanesulfonamide] has an IC50 of 1 to 10 µM.

Each molecule was assayed against T2, JAK3 (Homo sapiens, UniProt P52333) (assay: JAK3 kinobeads assay). Conditions: cell lysate, dot blot with JAK3 specific antibody.
T2 construct: endogenous in cells
T2 sequence (P52333 1-1124): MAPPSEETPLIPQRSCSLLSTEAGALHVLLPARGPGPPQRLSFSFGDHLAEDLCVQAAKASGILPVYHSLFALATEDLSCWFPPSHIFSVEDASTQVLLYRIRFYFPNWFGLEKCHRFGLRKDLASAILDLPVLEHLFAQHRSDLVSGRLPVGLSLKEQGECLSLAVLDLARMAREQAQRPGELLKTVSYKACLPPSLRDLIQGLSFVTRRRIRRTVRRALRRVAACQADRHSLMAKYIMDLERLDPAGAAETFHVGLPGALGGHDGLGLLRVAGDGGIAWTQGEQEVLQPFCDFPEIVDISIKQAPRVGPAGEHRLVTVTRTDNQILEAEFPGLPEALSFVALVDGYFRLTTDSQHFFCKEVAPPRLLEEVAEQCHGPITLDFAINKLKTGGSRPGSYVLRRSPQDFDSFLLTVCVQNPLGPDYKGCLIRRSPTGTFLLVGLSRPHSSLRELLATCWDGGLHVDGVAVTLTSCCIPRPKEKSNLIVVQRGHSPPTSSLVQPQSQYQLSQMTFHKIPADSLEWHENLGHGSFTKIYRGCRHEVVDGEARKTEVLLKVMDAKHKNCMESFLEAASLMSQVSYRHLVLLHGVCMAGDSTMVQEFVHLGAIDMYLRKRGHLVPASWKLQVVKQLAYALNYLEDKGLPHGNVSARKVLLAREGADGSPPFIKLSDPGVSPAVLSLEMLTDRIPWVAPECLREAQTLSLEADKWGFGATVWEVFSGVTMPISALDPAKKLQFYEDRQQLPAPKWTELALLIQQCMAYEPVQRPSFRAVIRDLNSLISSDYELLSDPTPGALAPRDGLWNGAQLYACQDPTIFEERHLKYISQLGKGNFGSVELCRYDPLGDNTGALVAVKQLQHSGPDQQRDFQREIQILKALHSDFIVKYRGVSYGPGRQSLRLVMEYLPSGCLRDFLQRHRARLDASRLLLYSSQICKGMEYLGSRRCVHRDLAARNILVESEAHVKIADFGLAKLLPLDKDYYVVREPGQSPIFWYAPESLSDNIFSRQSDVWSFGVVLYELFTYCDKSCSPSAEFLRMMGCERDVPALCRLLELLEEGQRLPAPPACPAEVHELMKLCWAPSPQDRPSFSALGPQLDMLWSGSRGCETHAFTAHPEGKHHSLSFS
Assay type: binding
Protocol: as §1
Compounds were tested by the procedure described in Example 102 but using a JAK3 specific antibody (Cell Signaling Technology, Inc., Danvers, US, catalogue number 3775) instead of a ZAP70 antibody.
In the case of `COc1nn(CC(F)(F)F)cc1Nc1ncc(F)c(Nc2ccccc2NS(C)(=O)=O)n1` [Example 74, N-(2-((5-fluoro-2-((3-methoxy-1-(2,2,2-trifluoroethyl)-1H-pyrazol-4-yl)amino)pyrimidin-4-yl)amino)phenyl)methanesulfonamide], the IC50 is reported as 1 to 10 µM. Work on `Cn1ccc(Nc2ncc(Cl)c(Nc3ccccc3NS(=O)(=O)C3CC3)n2)n1` [Example 53, N-(2-((5-chloro-2-((1-methyl-1H-pyrazol-3-yl)amino)pyrimidin-4-yl)amino)phenyl)cyclopropanesulfonamide] yielded an IC50 of 0.1 to 1 µM. `COCCn1cc(Nc2ncc(Cl)c(Nc3ccccc3NS(C)(=O)=O)n2)cn1` [Example 52, N-(2-((5-chloro-2-((1-(2-methoxyethyl)-1H-pyrazol-4-yl)amino)pyrimidin-4-yl)amino)phenyl)methanesulfonamide] gave an IC50 of no more than 0.1 µM. Work on `CCn1nc(Nc2ncc(Cl)c(Nc3ccccc3NS(C)(=O)=O)n2)cc1C` [Example 59, N-(2-((5-chloro-2-((1-ethyl-5-methyl-1H-pyrazol-3-yl)amino)pyrimidin-4-yl)amino)phenyl)methanesulfonamide] yielded an IC50 of no more than 0.1 µM. Molecule `CCS(=O)(=O)Nc1ccccc1Nc1nc(Nc2ccn(C)n2)ncc1F` [Example 63, N-(2-((5-fluoro-2-((1-methyl-1H-pyrazol-3-yl)amino)pyrimidin-4-yl)amino)phenyl)ethanesulfonamide] has an IC50 of 1 to 10 µM. With `CC(C)n1ccc(Nc2ncc(Cl)c(Nc3ccccc3NS(=O)(=O)C3CC3)n2)n1` [Example 54, N-(2-((5-chloro-2-((1-isopropyl-1H-pyrazol-3-yl)amino)pyrimidin-4-yl)amino)phenyl)cyclopropanesulfonamide] the IC50 was 1 to 10 µM. Work on `CS(=O)(=O)Nc1ccccc1Nc1nc(Nc2cn[nH]c2)ncc1Cl` [Example 25, N-(2-(2-(1H-pyrazol-4-ylamino)-5-chloropyrimidin-4-ylamino)phenyl)methanesulfonamide] yielded an IC50 of no more than 0.1 µM. For `Cn1nc(Nc2ncc(Cl)c(Nc3ccccc3NS(C)(=O)=O)n2)cc1C(=O)O` [Example 92, 3-((5-chloro-4-((2-(methylsulfonamido)phenyl)amino)pyrimidin-2-yl)amino)-1-methyl-1H-pyrazole-5-carboxylic acid], the IC50 was no more than 0.1 µM. Molecule `COc1nn(CC(F)(F)F)cc1Nc1ncc(Cl)c(Nc2ccccc2NS(C)(=O)=O)n1` [Example 82, N-(2-((5-chloro-2-((3-methoxy-1-(2,2,2-trifluoroethyl)-1H-pyrazol-4-yl)amino)pyrimidin-4-yl)amino)phenyl)methanesulfonamide] has an IC50 of 0.1 to 1 µM. `Cc1cc(Nc2ncc(Cl)c(Nc3cccc(F)c3NS(C)(=O)=O)n2)nn1C` [Example 78, N-(2-((5-chloro-2-((1,5-dimethyl-1H-pyrazol-3-yl)amino)pyrimidin-4-yl)amino)-6-fluorophenyl)methanesulfonamide] was tested, and the IC50 was 0.1 to 1 µM. `CCS(=O)(=O)Nc1ccccc1Nc1nc(Nc2cnn(C)c2)ncc1Cl` [Example 57, N-(2-((5-chloro-2-((1-methyl-1H-pyrazol-4-yl)amino)pyrimidin-4-yl)amino)phenyl)ethanesulfonamide] was tested, and the IC50 was no more than 0.1 µM. `CCS(=O)(=O)Nc1ccccc1Nc1nc(Nc2ccn(C)n2)ncc1Cl` [Example 56, N-(2-((5-chloro-2-((1-methyl-1H-pyrazol-3-yl)amino)pyrimidin-4-yl)amino)phenyl)ethanesulfonamide] was tested, and the IC50 was 0.1 to 1 µM. In the case of `CCCn1ccc(Nc2ncc(Cl)c(Nc3ccccc3NS(C)(=O)=O)n2)n1` [Example 46, N-(2-((5-chloro-2-((1-propyl-1H-pyrazol-3-yl)amino)pyrimidin-4-yl)amino)phenyl)methanesulfonamide], the IC50 is reported as no more than 0.1 µM. Work on `Cc1cc(Nc2ncc(Cl)c(Nc3ccccc3NS(=O)(=O)C3CC3)n2)nn1C` [Example 55, N-(2-((5-chloro-2-((1,5-dimethyl-1H-pyrazol-3-yl)amino)pyrimidin-4-yl)amino)phenyl)cyclopropanesulfonamide] yielded an IC50 of 0.1 to 1 µM.
